Laboratory results taken from PubChem BioAssay AID651717 (Broad Institute, 2012).

test system: mESC Bmi1-luciferase reporter, firefly/renilla ratio, 24 h; experiment: Bmi1-luciferase reporter activators in mESC, dose response, esBAF inhibitor project, mouse embryonic stem cells, cherry-pick (AID 651717);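 note: luciferase knocked into Bmi1 locus with EF-1a renilla as cell number control; rising ratio signals esBAF inhibition which derepresses Bmi1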

| Structure (SMILES) | AC40 |
| --- | --- |
| Cc1cc(NC(=O)Nc2ccc3c(ccn3C)c2)sn1 | 5.14 µM |
| COc1nc(Nc2ccc(C(C)C)cc2)nc(OC)n1 | 10.8 µM |
| COc1ccc2[nH]cc(C(=O)CNc3nc(C)cs3)c2c1 | 10.3 µM |
| COC(=O)C1CCc2c(ccc3c2CCCC3)C1=O (stereo not drawn) | 4.54 µM |
| COc1ccc(-c2csc(C(O)c3ccccc3)n2)cc1 (stereo not drawn) | 5.06 µM |
| COc1ccccc1CNC(=O)C[C@@H]1CC[C@@H]2[C@H](COC[C@H](O)CN2C(=O)Nc2ccc(Cl)cc2)O1 | 1.36 µM |
| COc1ccccc1NC(=O)CSc1nc2sc3c(c2c(=O)n1-c1ccccc1)CCN(C)C3 | 19.1 µM |
| Cc1cc(C)cc(N(CC(=O)Nc2ccc(-c3nc4ccc(C)cc4s3)cc2)S(C)(=O)=O)c1 | 4.11 µM |
| O=C(Nc1cccnc1Cl)c1cc(-c2ccccc2O)on1 | 1.09 µM |
| COc1ccc(NC(=O)c2cc(C3CC3)on2)c(OC)c1 | 11.8 µM |
| Cc1ccsc1CN(C)C(=O)C1CCC(=O)N(CCc2cccc(F)c2)C1 (stereo not drawn) | 5.77 µM |
| Cn1cccc1-c1nc2ccc(NC(=O)c3cccs3)cc2[nH]1 | 11.7 µM |
| c1ccc(Nc2nc(-c3ccncc3)cs2)cc1 | 2.71 µM |
| Fc1ccc2nc(-c3ccccc3)ccc2c1 | 1.14 µM |
| N/C(=N\OC(=O)c1cccnc1)c1ccccc1Cl | 23.6 µM |
| COc1ccc(Nc2ncnc3sc(C)cc23)cc1 | 5.43 µM |
| OC(c1ccc(F)c(F)c1)c1nc(-c2ccc3ccccc3c2)cs1 (stereo not drawn) | 20.3 µM |
| Cc1ccc2c(COC(=O)C34CC5CC(CC(C5)C3)C4)cc(=O)oc2c1 | 3.95 µM |
| O=C(Nc1ccc(Oc2cccnc2)cc1)c1ccccc1F | 12.7 µM |
| Nc1c(Cl)cc(N=Nc2ccccc2)cc1Cl | 3.27 µM |
| Cc1cccc(C)c1OCc1cc(C(=O)N2CCC(C3CCCCC3)C2)no1 (stereo not drawn) | 4.72 µM |
| O=C(O)C=C1CCN(c2ncc(C(F)(F)F)cc2Cl)CC1 | 2.07 µM |
| CCOc1ccc(N=C(/C(C(=O)C(=O)N2CCOCC2)=C(\O)c2ccccc2)c2ccccc2)cc1 | 11.2 µM |
| CN=Cc1cc(-c2ccccc2)sc1O | 12.9 µM |
| COc1ccc(CCn2nnc3ccccc3c2=O)cc1OC | 4.92 µM |

| Structure (SMILES) | AC40 |
| --- | --- |
| CCCCCCCNC(=O)C1(CC2CC(c3ccccc3)=NO2)CCN(C(=O)OC(C)(C)C)CC1 (stereo not drawn) | 15.4 µM |
| Cc1cc(C)c2c(CN(C)Cc3ccccc3)cc(=O)oc2c1 | 4.9 µM |
| O=C(CC1CCCC1)Nc1ccc(Br)cc1 | 16 µM |
| COc1ccc(-c2cc(C(=O)N3CCCC3)no2)cc1OC | 7.36 µM |
| CC(=O)c1ccc(NC(=O)CNCc2cccs2)cc1 | 12.3 µM |
| COc1ccc(N2CCN(C(=O)c3ccc(Cn4c(=S)[nH]c5ccc(N6CCOCC6)cc5c4=O)cc3)CC2)cc1 | 6.15 µM |
| COC(=O)c1ccc2[nH]c(C3(O)CCCCC3)c(C)c2c1 | 5.55 µM |
| O=C(O)CCc1ccc(-c2ccc(Br)cc2)n1-c1cccc(O)c1 | 10.8 µM |
| COC(=O)/C(=C1\Oc2ccc(C(C)(C)C)cc2S1)C(F)(F)F | 1.45 µM |
| Cc1ccc(Nc2cccccc2=O)cc1 | 3.88 µM |
| CC(=O)Nc1ccccc1OCc1nnc(-c2ccc(Cl)cc2)o1 | 8.95 µM |
| COc1ccc(C2=Nc3ccccc3NC(=O)C2N(C(=O)c2cc3ccccc3[nH]2)c2ccccc2)cc1 (stereo not drawn) | 1.44 µM |
| CCN(C(=O)c1cc2c(=O)n3cccc(C)c3nc2s1)C1CCCCC1 | 25.1 µM |
| COc1ccc(C(=O)N2CCc3ccccc32)cc1 | 5.97 µM |
| c1ccc(CCNc2ccc3c(c2)Cc2ccccc2-3)nc1 | 1.53 µM |
| Clc1cccc2sc(N3CCCCC3)nc12 | 5.75 µM |
| C=CCNc1nc(Cl)nc(Nc2ccccc2)n1 | 0.936 µM |
| Cc1ccc(C(=O)N2CCc3ccccc32)cc1C | 3.55 µM |
| Cc1cc(NC(=O)CC2CCCC2)ccc1Br | 11.8 µM |
| CC(C)c1ccc(NC(=O)c2ccc3snnc3c2)cc1 | 3.23 µM |
| CNc1nc(-c2ccc3c(c2)CCN3C(=O)c2ccc(F)cc2)cs1 | 8.13 µM |
| CC(C)CN1C(=O)c2ccc(NC(=O)c3cccs3)cc2C1=O | 3.84 µM |
| CC(C)C(=O)Nc1ccc(C(=O)c2ccccc2)cc1 | 8.18 µM |
| Cc1nc(C)c(-c2csc(Nc3ccc(Cl)cn3)n2)s1 | 8.77 µM |
| Cc1ccc(-c2nc(COC(=O)c3c(C)noc3C)cs2)cc1 | 4.93 µM |

| Structure (SMILES) | AC40 |
| --- | --- |
| Cn1c2ccccc2c(=O)c2cc(C#Cc3ccsc3)ccc21 | 1.08 µM |
| CC(=O)Oc1ccc(-c2cc3ccccc3oc2=O)cc1 | 3.22 µM |
| S=C1NC(c2ccccc2)=NCN1c1ccccc1 | 17.5 µM |
| CCN(CC)S(=O)(=O)c1cccc(-c2nc3n(n2)Cc2ccccc2-3)c1 | 21.7 µM |
| O=C(Nc1ccccc1)c1cc(C2CCCN(C(=O)c3ccccc3)C2)on1 (stereo not drawn) | 4.54 µM |
| O=C1Nc2ccccc2N=C(c2ccc3c(c2)OCO3)C1N(C(=O)c1ccc2ccccc2c1)C1CC1 (stereo not drawn) | 1.26 µM |
| COc1cc(C=O)c(Br)cc1OCc1ccc(C)cc1 | 4.67 µM |
| COC(=O)c1ccc(COC(=O)CNC(=O)c2ccc(OC)cc2)cc1 | 6.87 µM |
| COc1ccc(-n2nc(C(=O)NCC(=O)N3CCN(c4ccccc4)CC3)c3ccccc3c2=O)c(OC)c1 | 3.37 µM |
| COc1ccc(-c2nc(C#N)c(NC(C)C)o2)cc1 | 2.38 µM |
| COc1ccc(-c2cc3cc(OC)c(OC)cc3cn2)cc1 | 6.22 µM |
| Cc1ccccc1C(=O)c1cccn1CC(=O)NCc1cccc(Cl)c1 | 13.6 µM |
| Cc1cc(C(=O)Cn2cnc3ccccc3c2=O)c(C)n1C1CC1 | 2.92 µM |
| O=C(c1ccc(Cl)cc1)c1cnc(Nc2ccccc2)s1 | 1.46 µM |
| Cc1ccc(C(=O)CN2C(=O)NC3(CCCCCC3)C2=O)c(C)c1 | 1.63 µM |
| CC(C)C1C(=O)N(Cc2cn(CCC3OCCCO3)nn2)CCS(=O)(=O)N1Cc1ccc(-c2ccc(Cl)nc2)cc1 (stereo not drawn) | 17.8 µM |
| CCN(CC)S(=O)(=O)c1ccc2c(c1)nc(-c1ccccn1)n2C | 11.1 µM |
| c1csc(Cc2nc3ccccc3[nH]2)c1 | 16.2 µM |
| CCn1cnc2cc(NCc3ccccc3Cl)ccc21 | 3.92 µM |
| COc1ccc(NC(=O)Nc2cc(C)ccc2F)cc1 | 0.738 µM |
| c1ccc(-c2ccc(-c3ccccc3)[nH]2)cc1 | 1.44 µM |
| Cc1ccc(O)c(NC(=O)c2ccc3c(c2)C(=O)N(CC(C)C)C3=O)c1 | 1.23 µM |
| Cc1noc(C)c1COC(=O)c1cc(C)n(-c2ccccc2)c1C | 10 µM |
| CCn1c(COc2ccccc2C)nc2ccccc21 | 3.51 µM |
| C#CCn1cccc(C(=O)Nc2ccc(OC)cc2)c1=O | 10.7 µM |

| Structure (SMILES) | AC40 |
| --- | --- |
| Cn1c2nc3ccccc3c-2nc2ccccc21 | 4.33 µM |
| COC(=O)Cc1csc(Nc2ccccc2Cl)n1 | 6.92 µM |
| Cc1cccc(OCc2nc3ccccc3n2C)c1 | 6.7 µM |
| COc1ccccc1NC(=O)Cn1nnc(-c2ccccc2NC(=O)c2cc3ccccc3oc2=O)n1 | 4.5 µM |
| Oc1ccc(Cl)cc1C=NN1CCCCCC1 | 1.37 µM |
| O=C(Nc1nccs1)C(=O)c1c[nH]c2ccccc12 | 0.751 µM |
| CCN(CC)C(=O)Oc1ccc2c(=O)c(-c3ccc(OC)cc3)coc2c1 | 3.7 µM |
| O=S(=O)(c1ccc2ccccc2c1)N1CCN(S(=O)(=O)c2c(F)cccc2F)CC1 | 1.26 µM |
| C=CCNc1nc(NCc2cccc(OC)c2)c2sc(-c3ccccc3)cc2n1 | 1.86 µM |
| COc1ccc(/C=N/NC(=O)c2cccs2)c2ccccc12 | 9.35 µM |
| Cc1csc(NC(=O)Nc2ccc(Cl)cc2)n1 | 2.68 µM |
| CCCc1nc2c3ccccc3ccn2c1Cc1ccc(C)cc1 | 0.443 µM |
| CC(=O)c1sc(Nc2ccc(Oc3ccccc3)cc2)nc1C | 2.08 µM |
| O=C(NCCc1ccc(F)cc1)c1ccc2c(=O)n3c(nc2c1)CCC3 | 5.89 µM |
| Cc1cc(C)c2nc(-c3ccccc3)ccc2c1 | 1.5 µM |
| COc1cccc(OCc2cc(C(=O)N(C)Cc3nc4ccccc4[nH]3)no2)c1 | 2.78 µM |
| Cc1ccc(OCc2cc(C(=O)N3CCC(c4ccccc4Cl)C3)no2)cc1C (stereo not drawn) | 7.33 µM |
| CCN(CC)c1ccc2cc(C(=O)c3cccs3)c(=O)oc2c1 | 11.6 µM |
| Cc1ccccc1NC(=O)c1ccc2c(c1)N(C)CCS2 | 3.39 µM |
| COc1ccc2c(=O)c3ccccc3oc2c1 | 4.7 µM |
| CCCN1C(=O)c2ccc(C(=O)Nc3ccc4c(c3)OCO4)cc2C1=O | 9.64 µM |
| N#Cc1nc(COc2ccccc2)oc1N1CCCCC1 | 15.6 µM |
| Cc1nc(NCc2ccccc2)sc1C(=O)Nc1ccccc1 | 8.44 µM |
| CC(C)c1ccc(CNNC(=O)c2ccccc2)cc1 | 2.18 µM |
| Oc1cccc(Nc2nc(O)c(/C=C3\C=Nc4ccccc43)s2)c1 | 4.88 µM |

| Structure (SMILES) | AC40 |
| --- | --- |
| Fc1ccc(CSc2ccc(-c3cccs3)nn2)cc1 | 5.03 µM |
| COc1ccc(OCc2cc(C(=O)N(Cc3nccn3C)C(C)C)no2)c2ccccc12 | 3.93 µM |
| COc1cc(C(=O)Oc2ccccc2/C=N/NC(=O)c2ccc(Cl)cc2Cl)cc(OC)c1OC | 1.1 µM |
| CN(C)c1ccc(N=Nc2ccccc2C(=O)OCC(=O)Nc2ccccc2C(F)(F)F)cc1 | 4.61 µM |
| O=C(O)c1ccc(O)c2ncccc12 | 1.67 µM |
| O=S(=O)(Nc1cccc(-c2ccc(N3CCCCCC3)nn2)c1)c1ccc(C(F)(F)F)cc1 | 13.1 µM |
| O=C(COC(=O)c1cccc(S(=O)(=O)N2CCOCC2)c1)Nc1nc(-c2ccccc2Cl)cs1 | 16.2 µM |
| Oc1ccc(-c2nccc(-c3ccccn3)n2)cc1 | 3.66 µM |
| CCCC1CCC(c2nc(-c3cccnc3)no2)CC1 (stereo not drawn) | 2.04 µM |
| COc1ccc(NC(=O)O/N=C/c2ccccc2)cc1 | 5.24 µM |
| O=c1/c(=C\c2cccnc2)sc2nc3ccccc3n12 | 9.85 µM |
| Cc1ccc(NC(=O)Cc2noc3ccccc23)cc1 | 2.47 µM |
| COc1ccc(-c2cc(C(=O)N3CCN(c4ccccc4O)CC3)c3ccccc3n2)cc1 | 3.16 µM |
| CC(C)C1CCN(C(=O)C2CCC(=O)N(C3CCCCCC3)C2)CC1 (stereo not drawn) | 9.83 µM |
| CN(Cc1nccs1)C(=O)c1ccc2nc(Cc3ccccc3F)oc2c1 | 0.952 µM |
| CS(=O)(=O)c1ccccc1C(=O)Nc1ccc(-c2nc3ccccc3[nH]2)cc1 | 3.96 µM |
| O=C(CN1CCCCCC1)Nc1ccc(Br)cc1Br | 8.51 µM |
| CCC(C)(C)C1CCc2[nH]nc(C(=O)NC3CCCCC3)c2C1 (stereo not drawn) | 6.44 µM |
| Cc1ccc(OCc2cc(C(=O)NC(C)Cc3cccnc3)no2)cc1C (stereo not drawn) | 1.8 µM |
| Cc1cccc(COc2ccc(/C=N/NC(=O)c3nnn(-c4nonc4N)c3CN3CCCCC3)cc2)c1 | 34.2 µM |
| Cc1ccc2[nH]c(C(=O)N3CCCCC3)cc2c1 | 6.79 µM |
| C=CCn1c(=O)c(C(=O)Nc2ccc(C)cc2)c(O)c2ccccc21 | 13.1 µM |
| CN(C)c1ccc(CNc2nc3cc(-c4ccc(F)cc4)sc3c(=O)n2C)cc1 | 2.12 µM |
